Measurements from PMC5824344 (ACS Chemical Biology, 2017).

How the values were obtained:
[1] = test system: GluI and GluII in primary human monocyte-derived macrophages (MDMΦ); test: Free oligosaccharide (FOS) assay in primary monocyte-derived macrophages; assay type: cell-based; conditions: naive MDMΦ
Experimental: (§1) 5 Cell and Virus Culture and Assays
(§2) 5.1 Culture of Cell Lines
The human hepatoma cell line Huh7.5 (Apath, LLC) was cultured in Dulbecco’s modiﬁed Eagle medium (DMEM) with Glutamax (Gibco) supplemented with 100 µg mL−1 strepto-mycin (Sigma), 100 U mL−1 penicillin (Sigma), 100 µm MEM non-essential amino acids (Gibco) and 10% (volume/volume, v/v) heat-inactivated (56 ◦C, 30 min) fetal calf serum (FCS, Seralab). The human monocytic cell line HL60 (ATCC), human T lymphocyte cell line Jurkat (ATCC), and human B lymphocyte cell line Raji (ATCC) were each maintained in RPMI 1640 media with Glutamax (Gibco) supplemented with 100 µg mL−1 streptomycin, 100 U mL−1 penicillin and 10% (v/v) FCS. […]
(§3) Cell viability was measured using the CellTiter 96 R© AQueous One Solution Cell Prolifera-tion MTA (3-(4,5-dimethylthiazol-2-yl)-5-(3-carboxymethoxyphenyl)-2-(4-sulfophenyl)-2H - […]
(§4) After a further one to two hour incubation, the absorbance at 490 nm was measured on a Molecular Devices SpectraMax M5 microplate reader. […]
(§5) Absorbances were averaged across replicates, and corrected for background by subtracting the value for media-only wells. Each drug treatment was then evaluated as a percentage of untreated cells. […]
FOS analysis was carried out as described previously. […] Before purifying the FOS, each sample was analyzed for protein content using the modiﬁed Bradford assay. […]

Rat intestinal sucrase = molecular target: T1, Rat intestinal sucrase (Rattus norvegicus, UniProt P23739); test: Inhibition of rat intestinal sucrase (natural substrate, glucose release); assay type: biochemical; conditions: for IC50: isolated enzyme in vitro, mean of three measurements, read-out: IC50, α-Glucosidase, Rat intestinal sucrase
T1 construct: from tissue; host or cells: intestine of male Wistar rats, partially purified extract
T1 sequence (P23739 whole entry): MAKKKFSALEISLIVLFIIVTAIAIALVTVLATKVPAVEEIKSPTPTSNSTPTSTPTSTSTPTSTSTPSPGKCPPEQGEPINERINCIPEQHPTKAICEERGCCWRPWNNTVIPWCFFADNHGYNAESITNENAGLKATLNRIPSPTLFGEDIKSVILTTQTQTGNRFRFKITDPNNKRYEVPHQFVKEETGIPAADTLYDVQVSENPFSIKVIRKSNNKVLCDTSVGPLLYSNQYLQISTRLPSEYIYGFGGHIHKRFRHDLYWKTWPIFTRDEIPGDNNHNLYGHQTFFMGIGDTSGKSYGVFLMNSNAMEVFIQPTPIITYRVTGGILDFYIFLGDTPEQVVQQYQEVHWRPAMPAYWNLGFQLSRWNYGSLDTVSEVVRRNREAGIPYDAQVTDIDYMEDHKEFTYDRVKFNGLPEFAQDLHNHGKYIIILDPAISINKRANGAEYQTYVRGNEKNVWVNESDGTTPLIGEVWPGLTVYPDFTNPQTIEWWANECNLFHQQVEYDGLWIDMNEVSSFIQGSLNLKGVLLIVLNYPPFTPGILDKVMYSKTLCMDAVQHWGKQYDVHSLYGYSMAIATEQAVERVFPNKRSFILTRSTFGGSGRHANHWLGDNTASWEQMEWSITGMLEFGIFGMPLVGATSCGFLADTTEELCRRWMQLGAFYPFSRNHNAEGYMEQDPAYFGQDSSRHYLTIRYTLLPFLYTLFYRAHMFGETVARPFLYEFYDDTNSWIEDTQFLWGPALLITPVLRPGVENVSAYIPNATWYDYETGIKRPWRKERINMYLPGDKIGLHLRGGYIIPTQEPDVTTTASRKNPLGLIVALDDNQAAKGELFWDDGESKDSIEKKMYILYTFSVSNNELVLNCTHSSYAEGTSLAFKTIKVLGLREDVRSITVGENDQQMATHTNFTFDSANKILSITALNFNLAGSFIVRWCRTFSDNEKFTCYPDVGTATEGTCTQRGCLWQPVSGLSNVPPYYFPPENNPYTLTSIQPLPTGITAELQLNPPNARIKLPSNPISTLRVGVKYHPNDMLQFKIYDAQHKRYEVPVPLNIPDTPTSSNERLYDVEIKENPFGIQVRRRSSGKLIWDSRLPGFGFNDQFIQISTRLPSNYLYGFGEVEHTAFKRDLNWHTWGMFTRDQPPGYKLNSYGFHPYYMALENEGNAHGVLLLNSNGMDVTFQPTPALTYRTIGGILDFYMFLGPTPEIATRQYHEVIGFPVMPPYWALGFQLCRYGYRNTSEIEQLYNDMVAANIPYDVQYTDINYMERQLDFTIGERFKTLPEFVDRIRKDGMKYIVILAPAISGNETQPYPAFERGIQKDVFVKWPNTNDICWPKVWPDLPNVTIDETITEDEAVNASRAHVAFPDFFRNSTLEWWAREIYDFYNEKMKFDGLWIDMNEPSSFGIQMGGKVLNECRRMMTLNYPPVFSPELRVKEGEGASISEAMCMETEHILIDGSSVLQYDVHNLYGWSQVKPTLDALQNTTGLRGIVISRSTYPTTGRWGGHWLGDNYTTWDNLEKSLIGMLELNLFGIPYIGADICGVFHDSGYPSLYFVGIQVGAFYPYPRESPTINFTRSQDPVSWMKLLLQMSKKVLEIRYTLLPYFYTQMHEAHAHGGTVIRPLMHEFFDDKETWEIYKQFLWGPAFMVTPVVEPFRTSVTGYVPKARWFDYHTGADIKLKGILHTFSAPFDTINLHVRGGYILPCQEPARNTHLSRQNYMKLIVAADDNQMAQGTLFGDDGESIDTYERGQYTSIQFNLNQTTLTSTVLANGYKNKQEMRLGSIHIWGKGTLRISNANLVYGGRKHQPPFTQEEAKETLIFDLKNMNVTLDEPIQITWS

Rat intestinal maltase = test: Inhibition of rat intestinal maltase (natural substrate, glucose release); assay type: biochemical; conditions: for IC50: isolated enzyme in vitro, mean of three measurements, read-out: IC50, α-Glucosidase, Rat intestinal maltase
Experimental: 4 Enzyme Inhibition Assays
All rat enzymes were isolated from 18-week-old, male Wistar rats, while human lysosomal α-glucosidase was obtained in commercially available form from Sanoﬁ Genzyme. Inhibition of isolated glucosidases was evaluated as described previously. 3 Brieﬂy, maltase, isomaltase, sucrase, and cellobiase were used as partially puriﬁed tissue extracts. Inhibition assays for each enzyme were performed with the respective natural substrate, and release of d-glucose measured by Glucose B-test (Wako Diagnostics). Assays of rat ER α-glucosidase II and human lysosomal α-glucosidase inhibition were conducted with α-p-nitrophenylglucoside as substrate; 400 mm Na2CO3 was added to quench these reactions, and the extent of hydrolysis was evaluated as absorbance at 400 nm by spectrophotometer.
ER α-glucosidase I inhibition assays were performed using anthranilic acid-labelled Glc3Man7GlcNAc2 as substrate. After terminating the reaction with acetonitrile, protein was removed by cen-trifugation through a 10 kDa molecular weight cut oﬀ ﬁlter. The amount of hydrolysis was then quantiﬁed by normal phase high performance liquid chromatography analysis of unreacted substrate and product (Glc2Man7GlcNAc2).4
ER α-glucosidase II inhibition assays using native-like substrates were performed using an-thranilic acid-labelled Glc2Man7GlcNAc2 as substrate. After terminating the reaction with acetonitrile, protein was removed by centrifugation through a 10 kDa molecular weight cut oﬀ ﬁlter. The amount of hydrolysis was then quantiﬁed by normal phase high performance liq-uid chromatography analysis of unreacted substrate and both products (Glc1Man7GlcNAc2

[2] = test system: GluI and GluII in HL60 (promyelocytic) cells; test: Free oligosaccharide (FOS) assay in HL60 cells; assay type: cell-based, human; conditions: 48 h
Experimental: as §1, §2
The human hepatoma cell line Huh7.5 (Apath, LLC) was cultured in Dulbecco’s modiﬁed Eagle medium (DMEM) with Glutamax (Gibco) supplemented with 100 µg mL−1 strepto-mycin (Sigma), 100 U mL−1 penicillin (Sigma), 100 µm MEM non-essential amino acids (Gibco) and 10% (volume/volume, v/v) heat-inactivated (56 ◦C, 30 min) fetal calf serum (FCS, Seralab). The human monocytic cell line HL60 (ATCC), human T lymphocyte cell line Jurkat (ATCC), and human B lymphocyte cell line Raji (ATCC) were each maintained in RPMI 1640 media with Glutamax (Gibco) supplemented with 100 µg mL−1 streptomycin, 100 U mL−1 penicillin and 10% (v/v) FCS. The monkey kidney cell line LLC-MK2 (a gift from Armed Forces Research Institute of Medical Sciences, Thailand) was cultured in M199 media (Gibco) supplemented with 2 mm l-glutamine, 100 µg mL−1 streptomycin, 100 U mL−1 penicillin and 20% (v/v) FCS. Subsequently, these are referred to as growth media for each cell line. Unless otherwise indicated, all cell incubations were carried out at 37 ◦C and 5% CO2. All cells were maintained as mycoplasma free, with regular veriﬁcations by polymerase chain reaction (PCR).
5.2 Isolation and Culture of Primary Human MDMΦ
Primary human MDMΦ were generated from human monocytes isolated from buﬀy coats (NHS Blood and Transplant, surplus to clinical requirements) as described previously 5 and cultured in X-VIVO10 medium (Lonza) supplemented with 1% (v/v) heat-inactivated (56◦C, 30 min) autologous plasma. The use of human blood was approved by the NHS National Research Ethics Service (09/H0606/3).
as §3
tetrazolium, inner salt) Assay (Promega) according to the manufacturer’s instruction. Brieﬂy, cells were treated in triplicate either for 4 d (Huh7.5) or 2 d (all other cell types). […]
as §4, §5
FOS analysis was carried out as described previously. […] Before purifying the FOS, each sample was analyzed for protein content using the modiﬁed Bradford assay. […] The labelled glycans were then analyzed by normal phase high performance liquid chromatography. Retention times and peak area were used to identify and quantify glycans, respectively, by comparison to standards of known identity and molar quantity. FOS quantities were normalized to protein levels.

In the case of `CCCCN1CC(O)C(O)C(O)C1CO` [Compound 2, N-butyl-D-1-deoxynojirimycin, reference compound], the “glucosylated free oligosaccharides (FOS) observed after treatment” value (“glucosylated free oligosaccharides” for short) [1] is reported as “mono- and triglucosylated FOS were observed”, the IC50 (Rat intestinal sucrase) is reported as 0.43 µM and the IC50 (Rat intestinal maltase) is reported as 1.7 µM. The “glucosylated free oligosaccharides” value ([2]; 10 µm) was “produced glucosylated FOS”.
In the case of `Cc1c(C)c2c(c(C)c1OCCCCCN1CC(O)C(O)C(O)C1CO)CCC(C)(CCCC(C)CCCC(C)CCCC(C)C)O2` (stereo not drawn) [Compound 4, 5′-tocopheroxypentyl-DNJ], the “glucosylated free oligosaccharides” value [1] is reported as “Only monoglucosylated FOS accumulated”, the inhibition at 50 µM (Rat intestinal sucrase; 50 μM, read-out: inhibition of intestinal sucrase at the maximum tested concentration) is reported as under 50% and the IC50 (Rat intestinal sucrase) is reported as over 50 µM. The “inhibition of intestinal maltase at the maximum tested concentration” value (Rat intestinal maltase; 50 μM) was “less than 50%”, the IC50 (Rat intestinal maltase) was over 50 µM and the “glucosylated free oligosaccharides” value ([2]; 10 µm) was “did not”. The “glucosylated free oligosaccharides” value ([2]; 50 µm) was “detected” and the “glucosylated free oligosaccharides” value ([2]; 50 µm, listed as ToP-DNJ 4) was “production of monoglucosylated FOS”.
